Literature values as cited in patent US20210251559A1, “METHODS FOR DIAGNOSING, MONITORING AND TREATING NEUROLOGICAL DISEASES AND DISORDERS” (CuraSen Therapeutics, Inc., priority 2018, published 2021).

System: Ts65Dn mice
Conditions: increasing brain NE levels

In the case of N[C@H](C(=O)O)[C@H](O)c1ccc(O)c(O)c1 [L-DOPS, L-threo-3,4-dihydroxyphenylserine], the contextual learning is listed as “restored contextual learning”.
